In patent US9604979B2, “Pyrroloquinoline quinone alcohol adduct” (Mitsubishi Gas Chemical Company, Inc., priority 2011, dated 2017):

How the values were obtained:
[1] = Mixing with coenzyme Q10, color of the mixture; assay type: physicochemical; details: weight ratio 1:1
Escherichia coli JM109 = experiment: Effect on bacterial growth (viable bacteria count); assay type: cell-based; details: 8 mg sample + 100 μL E. coli JM109 solution (turbidity at 660 nm 0.57), 30 minutes room temperature, then 900 μL PBS, LB agar 30° C., colonies
Description: Escherichia coli JM109 was cultivated overnight in an LB medium at 30° C. The cultivated Escherichia coli JM109 was diluted with a phosphate buffer (PBS) having pH of 7.4 manufactured by GIBCO to obtain a solution 1 having turbidity at 660 nm of 0.57. To 8 mg of each sample shown in Table 2, 100 μL of the solution 1 was added at room temperature, and after 30 minutes, 900 μL of PBS was further added to obtain a solution 2. The solution 2 was planted in a petri dish with an LB agar medium and cultivated at 30° C., and a viable bacteria count was determined from the number of colonies in the solution 2.

[2] = Stability test in polypropylene container in oven (change of color); assay type: physicochemical
Description: It is to be noted that 100 μL of ODO, Nisshin Oillio was used as an edible fat and oil.

[3] = High-performance liquid chromatography analysis: return of PQQ alcohol adduct to PQQ; assay type: physicochemical; details: 1 mg/ML adduct in phosphate buffer pH 7.4, left at room temperature for 2 hours, HPLC
Description: The high-performance liquid chromatography analysis of the PQQ alcohol adduct or the like was performed as follows.
A column: YMC-Pack ODS-TMS (5 μm) 150×4.6 mm I.D. was arranged in a high-performance liquid chromatography LC-20A manufactured by Shimadzu Corporation, and detection was performed at 260 nm using an eluent of 100 mM CH3COOH/100 mM CH3COONH4 (30/70, pH 5.1) and an absorption detector.
The PQQ methanol adduct obtained in Example 1 was added to a phosphate buffer (manufactured by Invitrogen pH 7.4) to obtain 1 mg/ML of a PQQ methanol adduct solution. After the PQQ methanol adduct solution was left at room temperature for 2 hours, the high-performance liquid chromatography analysis was performed. […] That is, the PQQ methanol adduct obtained in Example 1 returned to the original PQQ free body by the addition of the phosphate buffer and being left at room temperature for 2 hours.

Structure (SMILES): O=C([O-])c1cc(C(=O)[O-])c2c(n1)C(=O)C(=O)c1cc(C(=O)O)[nH]c1-2.[Na+].[Na+] [PQQ disodium]
- Color of mixture with coenzyme Q10 [1]: Brown

Structure (SMILES): O=C(O)c1cc(C(=O)O)c2c(n1)C(=O)C(=O)c1cc(C(=O)O)[nH]c1-2 [PQQ free body, Pyrroloquinoline quinone]
- Viable bacteria count (Escherichia coli JM109): 80
- Color of mixture with coenzyme Q10 [1]: Brown

Structure (SMILES): COC1(O)C(=O)c2cc(C(=O)O)[nH]c2-c2c(C(=O)O)cc(C(=O)O)nc21 (stereo not drawn) [PQQ methanol adduct]
- Viable bacteria count (Escherichia coli JM109): 0
- Color of mixture with coenzyme Q10 [1]: Yellow
- Observation result after 7 days ([2]; 30° C., container's cover opened, 5 mg): Red powder
- Discoloration in the opened state (container's cover opened) ([2]; Table 5): immediately discolored to red
- Stability in the sealed state of the container ([2]; Table 5): stable
- PQQ existing in the PQQ methanol adduct solution [3]: 0.92 mg/mL
